The assay has as its target T1, Adrenergic β2 (Homo sapiens, UniProt P07550).
T1 construct: Adherent H292 cells were removed from tissue culture flasks; endogenous in cells; host or cells: H292 cells
Nature of the assay: Adrenergic β2 mediated cAMP production in H292 cells (AlphaScreen cAMP detection). In kind it is cell-based. Also on record: key to β2 Int Act: fraction of formoterol maximum activity (formoterol = 1). The following applies: Intrinsic Activity as a fraction relative to the maximum activity determined for formoterol. As to the method:
Adrenergic β2 Mediated cAMP Production
H292 cells were grown in 225 cm2 flasks incubator at 37° C., 5% CO2 in RPMI medium containing, 10% (v/v) FBS (foetal bovine serum) and 2 mM L-glutamine.
Adherent H292 cells were removed from tissue culture flasks by treatment with Accutase™ cell detachment solution for 15 minutes. Flasks were incubated for 15 minutes in a humidified incubator at 37° C., 5% CO2. Detached cells were re-suspended in RPMI media (containing 10% (v/v) FBS and 2 mM L-glutamine) at 1×10^6 cells per mL. 10000 cells in 100 μL were added to each well of a tissue-culture-treated 96-well plate and the cells incubated overnight in a humidified incubator at 37° C., 5% CO2. The culture media was removed and cells were washed twice with 100 μL assay buffer and replaced with 50 μL assay buffer (HBSS solution containing 10 mM HEPES pH7.4 and 5 mM glucose). Cells were rested at room temperature for 20 minutes after which time 25 μL of rolipram (1.2 mM made up in assay buffer containing 2.4% (v/v) dimethylsulphoxide) was added. Cells were incubated with rolipram for 10 minutes after which time test compounds were added and the cells were incubated for 60 minutes at room temperature. The final rolipram concentration in the assay was 300 μM and final vehicle concentration was 1.6% (v/v) dimethylsulphoxide. The reaction was stopped by removing supernatants, washing once with 100 μL assay buffer and replacing with 50 μL lysis buffer. The cell monolayer was frozen at −80° C. for 30 minutes (or overnight).
AlphaScreen™ cAMP Detection
The concentration of cAMP (cyclic adenosine monophosphate) in the cell lysate was determined using AlphaScreen™ methodology. The frozen cell plate was thawed for 20 minutes on a plate shaker then 10 μL of the cell lysate was transferred to a 96-well white plate. 40 μL of mixed AlphaScreen™ detection beads pre-incubated with biotinylated cAMP, was added to each well and the plate incubated at room temperature for 10 hours in the dark. The AlphaScreen™ signal was measured using an EnVision spectrophotometer (Perkin-Elmer Inc.) with the recommended manufacturer's settings. cAMP concentrations were determined by reference to a calibration curve determined in the same experiment using standard cAMP concentrations. Concentration response curves for agonists were constructed and data was fitted to a four parameter logistic equation to determine both the pEC50 and Intrinsic Activity. Intrinsic Activity was expressed as a fraction relative to the maximum activity determined for formoterol in each experiment.
(Cyclic AMP is a second messenger, typically raised through Gs and lowered through Gi signalling.)

Counter-ions that a name gives are not always drawn.

We go through 19 compounds from patent US20120142646A1, “Novel Compounds 621” (priority 2006, published 2012).

T1 sequence (P07550 whole entry): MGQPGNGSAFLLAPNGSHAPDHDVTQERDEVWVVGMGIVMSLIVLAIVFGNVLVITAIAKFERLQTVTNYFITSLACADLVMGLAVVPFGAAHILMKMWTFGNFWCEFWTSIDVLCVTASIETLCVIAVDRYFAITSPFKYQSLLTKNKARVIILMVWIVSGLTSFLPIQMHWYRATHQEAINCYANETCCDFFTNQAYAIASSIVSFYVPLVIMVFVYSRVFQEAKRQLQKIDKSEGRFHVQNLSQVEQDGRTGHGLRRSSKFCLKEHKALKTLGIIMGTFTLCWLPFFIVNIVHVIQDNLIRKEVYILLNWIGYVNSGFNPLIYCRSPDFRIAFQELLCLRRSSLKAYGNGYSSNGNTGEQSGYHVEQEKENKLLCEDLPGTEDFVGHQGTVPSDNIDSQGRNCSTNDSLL

In the case of `CCCC[C@@H](C)N(CCNCCc1ccc(O)c2c1OCC(=O)N2)C(=O)CCNCCc1cc(C)ccc1F` [Example 56, (R)-3-(2-Fluoro-5-methylphenethylamino)-N-(hexan-2-yl)-N-(2-(2-(5-hydroxy-3-oxo-3,4-dihydro-2H-benzo[b][1,4]oxazin-8-yl)ethylamino)ethyl)propanamide bis(trifluoroacetate)], the “β2 Int Act” value amounted to 0.91.

Consider `CCCCN(CCNCCc1ccc(O)c2[nH]c(=O)ccc12)C(=O)CCOCCc1ccccc1` [Example 1, N-Butyl-N-(2-(2-(8-hydroxy-2-oxo-1,2-dihydroquinolin-5-yl)ethylamino)ethyl)-3-phenethoxypropanamide hydrochloride], for which the “β2 Int Act” value is on record as 0.9.

As to `CCCC[C@@H](C)N(CCNCCc1ccc(O)c2c1OCC(=O)N2)C(=O)CCNCCc1ccccc1Cl` [Example 46, (R)-3-(2-Chlorophenethylamino)-N-(hexan-2-yl)-N-(2-(2-(5-hydroxy-3-oxo-3,4-dihydro-2H-benzo[b][1,4]oxazin-8-yl)ethylamino)ethyl)propanamide bis(trifluoroacetate)], the “β2 Int Act” value was 0.89.

Consider `O=C1COc2c(CCNCCN(C(=O)CCNCCc3ccc(Cl)cc3Cl)C3CCCCC3)ccc(O)c2N1` [Example 31, N-Cyclohexyl-3-(2,4-dichlorophenethylamino)-N-(2-(2-(5-hydroxy-3-oxo-3,4-dihydro-2H-benzo[b][1,4]oxazin-8-yl)ethylamino)ethyl)propanamide bis(trifluoroacetate)], for which the “β2 Int Act” value was determined as 0.94.

With `O=C(CCNCCc1cccc(F)c1)N(CCNCCc1ccc(O)c2[nH]c(=O)ccc12)C1CCCCCC1` [Example 5, N-Cycloheptyl-3-(3-fluorophenethylamino)-N-(2-(2-(8-hydroxy-2-oxo-1,2-dihydroquinolin-5-yl)ethylamino)ethyl)propanamide bis(trifluoroacetate)], the “β2 Int Act” value is 0.82.

For the compound `O=C1COc2c(CCNCCN(C(=O)CCNCCc3cc(F)cc(Cl)c3)C3CCCCC3)ccc(O)c2N1` [Example 41, 3-(3-Chloro-5-fluorophenethylamino)-N-cyclohexyl-N-(2-(2-(5-hydroxy-3-oxo-3,4-dihydro-2H-benzo[b][1,4]oxazin-8-yl)ethylamino)ethyl)propanamide bis(trifluoroacetate)], the “β2 Int Act” value is on record as 0.95.

Turning to `O=C(CCNCCc1cccc(Cl)c1)N(CCNCCc1ccc(O)c2[nH]c(=O)ccc12)C1CCCCCC1` [Example 3, 3-(3-Chlorophenethylamino)-N-cycloheptyl-N-(2-(2-(8-hydroxy-2-oxo-1,2-dihydroquinolin-5-yl)ethylamino)ethyl)propanamide bis(trifluoroacetate)], the “β2 Int Act” value was determined as 0.82.

As for `O=C1COc2c(CCNCCN(C(=O)CCNCCc3ccc(Cl)c(Cl)c3)C3CCCCC3)ccc(O)c2N1` [Example 30, N-Cyclohexyl-3-(3,4-dichlorophenethylamino)-N-(2-(2-(5-hydroxy-3-oxo-3,4-dihydro-2H-benzo[b][1,4]oxazin-8-yl)ethylamino)ethyl)propanamide bis(trifluoroacetate)], the “β2 Int Act” value was 0.92.

As for `CCCC[C@@H](C)N(CCNCCc1ccc(O)c2c1OCC(=O)N2)C(=O)CCNCCc1cccc(Cl)c1` [Example 44, (R)-3-(3-Chlorophenethylamino)-N-(hexan-2-yl)-N-(2-(2-(5-hydroxy-3-oxo-3,4-dihydro-2H-benzo[b][1,4]oxazin-8-yl)ethylamino)ethyl)propanamide bis(trifluoroacetate)], the “β2 Int Act” value came out at 0.89.

Regarding `CCCC[C@@H](C)N(CCNCCc1ccc(O)c2c1OCC(=O)N2)C(=O)CCNCCc1ccc(F)c(Cl)c1` [Example 48, (R)-3-(3-Chloro-4-fluorophenethylamino)-N-(hexan-2-yl)-N-(2-(2-(5-hydroxy-3-oxo-3,4-dihydro-2H-benzo[b][1,4]oxazin-8-yl)ethylamino)ethyl)propanamide bis(trifluoroacetate)], the “β2 Int Act” value worked out at 0.91.

In the case of `Cl.O=C(CCOCCc1cccc(F)c1)N(CCNCCc1ccc(O)c2[nH]c(=O)ccc12)C1CCCCC1` [Example 72, N-Cyclohexyl-3-(3-fluorophenethoxy)-N-(2-(2-(8-hydroxy-2-oxo-1,2-dihydroquinolin-5-yl)ethylamino)ethyl)propanamide hydrochloride], the “β2 Int Act” value is 0.92.

For `O=C(CCNCCc1ccc(Cl)cc1)N(CCNCCc1ccc(O)c2[nH]c(=O)ccc12)C1CCCCC1` [Example 14, 3-(4-Chlorophenethylamino)-N-cyclohexyl-N-(2-(2-(8-hydroxy-2-oxo-1,2-dihydroquinolin-5-yl)ethylamino)ethyl)propanamide bis(trifluoroacetate)], the “β2 Int Act” value was 0.88.

Consider `O=C(CCNCCc1cccc(F)c1F)N(CCNCCc1ccc(O)c2[nH]c(=O)ccc12)C1CCCCC1` [Example 18, N-Cyclohexyl-3-(2,3-difluorophenethylamino)-N-(2-(2-(8-hydroxy-2-oxo-1,2-dihydroquinolin-5-yl)ethylamino)ethyl)propanamide bis(trifluoroacetate)], for which the “β2 Int Act” value is reported as 0.95.

As to `O=C1COc2c(CCNCCN(C(=O)CCNCCc3cccc(Cl)c3)C3CCCCC3)ccc(O)c2N1` [Example 27, 3-(3-Chlorophenethylamino)-N-cyclohexyl-N-(2-(2-(5-hydroxy-3-oxo-3,4-dihydro-2H-benzo[b][1,4]oxazin-8-yl)ethylamino)ethyl)propanamide bis(trifluoroacetate)], the “β2 Int Act” value was 0.89.

For `Cl.O=C(CCOCCc1ccc(F)cc1)N(CCNCCc1ccc(O)c2[nH]c(=O)ccc12)C1CCCCC1` [Example 71, N-Cyclohexyl-3-(4-fluorophenethoxy)-N-(2-(2-(8-hydroxy-2-oxo-1,2-dihydroquinolin-5-yl)ethylamino)ethyl)propanamide hydrochloride], the “β2 Int Act” value was 0.85.

For the compound `CC(C)[C@@H](C)N(CCNCCc1ccc(O)c2c1OCC(=O)N2)C(=O)CCNCCc1ccc(Cl)c(Cl)c1` [Example 59, (R)-3-(3,4-Dichlorophenethylamino)-N-(2-(2-(5-hydroxy-3-oxo-3,4-dihydro-2H-benzo[b][1,4]oxazin-8-yl)ethylamino)ethyl)-N-(3-methylbutan-2-yl)propanamide dihydrochloride], the “β2 Int Act” value turned out to be 0.87.

For the compound `CCCC[C@@H](C)N(CCNCCc1ccc(O)c2c1OCC(=O)N2)C(=O)CCNCCc1cc(F)cc(Cl)c1` [Example 50, (R)-3-(3-Chloro-5-fluorophenethylamino)-N-(hexan-2-yl)-N-(2-(2-(5-hydroxy-3-oxo-3,4-dihydro-2H-benzo[b][1,4]oxazin-8-yl)ethylamino)ethyl)propanamide bis(trifluoroacetate)], the “β2 Int Act” value is given as 0.89.

On to `O=C1COc2c(CCNCCN(C(=O)CCNCCc3ccccc3Cl)C3CCCCC3)ccc(O)c2N1` [Example 28, 3-(2-Chlorophenethylamino)-N-cyclohexyl-N-(2-(2-(5-hydroxy-3-oxo-3,4-dihydro-2H-benzo[b][1,4]oxazin-8-yl)ethylamino)ethyl)propanamide bis(trifluoroacetate)], for which the “β2 Int Act” value is listed as 0.86.

With `O=C1COc2c(CCNCCN(C(=O)CCNCCc3ccc(C(=O)O)cc3)C3CCCCC3)ccc(O)c2N1` [Example 43, 4-(2-(3-(Cyclohexyl(2-(2-(5-hydroxy-3-oxo-3,4-dihydro-2H-benzo[b][1,4]oxazin-8-yl)ethylamino)ethyl)amino)-3-oxopropylamino)ethyl)benzoic acid bis(trifluoroacetate)], the “β2 Int Act” value worked out at 0.97.
